# Measured values: patent publication US20120035187A1 (priority 2009, published 2012)
# Structures can show the parent of a compound that is named as a salt. Where two headings read alike, the source gives them in different places.
# What was measured:
# APP Tg mouse [1] = test: Passive avoidance test, APP transgenic mouse; type: in vivo; settings: dose 200 μg/kg body weight, five times a week for 12 weeks
# APP Tg mouse [2] = test: Water maze test, APP transgenic mouse; type: in vivo; settings: dose 200 μg/kg body weight, time required for arriving the platform
# [3] = Hydroxyl radical-scavenging activity, ESR (Fenton reaction)
# Procedure: Stock solutions, prepared by dissolving NK-4, NK-19, NK-53, NK-100, and NK-557 in DMSO, were respectively diluted with refined water to give concentrations of 3-folds higher than those in Table 14 and used as test sample solutions. As a positive control, a neuroprotectant, “edaravone”, commercialized as “RADICUT®” containing 3-methyl-1-phenyl-2-pyrazoline-5-one as an effective ingredient by Mitsubishi Tanabe Pharma Corporation, Osaka, Japan, was diluted with refined water to give a concentration of 3-folds higher than that in Table 14 for use. To 50 μl of refined water, 50 μl of 89 mM DMPO ([…]) commercialized by Dojindo Laboratories, Kumamoto, Japan, 50 μl of the test sample solution, and 50 μl of an aqueous solution containing 1 mM hydrogen peroxide, 1 mM FeSO4, and 1 mM DTPA, commercialized by Wako Pure Chemical Industries, Osaka, Japan, were added, mixed for 10 seconds using a vortex mixer and allowed to react in an incubator controlled at 37° for 40 seconds. After 30 seconds from completion of the reaction, the resulting reaction mixture was subjected to ESR measurement. A control solution was prepared by the same method as above except for using 50 μl of a diluted edaravone solution as a substitute for the test sample solution, and subjected to ESR measurement.
# The reaction mixture for measuring hydroxyl or peroxyl radicals was poured into a flat quartz cell for ESR, set to “FREE RADICAL MONITOR JES-FR30”, an ESR apparatus commercialized by JOEL Ltd., Tokyo, Japan, and ESR was measured according to manual manner. The residual ratio of peroxyl radical (%) was determined as a relative value by defining the ESR value, obtained by using 0.1 M phosphate buffer as a substitute of the test sample solution, as 100. The results are in Tables 14 and 15. […] Therefore, the IC50 of edaravone was determined by another test using its higher concentration, and the result is also shown in Table 14. The conditions of the ESR measurement were set as follows: […]
# PC12-HS cells [4] = test: Evaluation B: neurite-outgrowth action in presence of NGF; type: cell-based, rat; settings: for Percentage (%) of cells with neurite outgrowth: 50 μl/well of 2 μg/ml test solution + NGF final 5 ng/ml, 3 days
# PC12-HS cells [5] = tested on: PC12-HS cells; set-up: suppression of cytotoxicity by 6-hydroxy dopa (in words): dose or concentration left out as unconfirmed
# Procedure: 6-Hydroxy dopa was used as a cytotoxic agent. Similarly as in Experiment 1, PC12-HS cells, which had been cultured in D-MEM medium supplemented with 10 v/v % FBS, were inoculated to 96-well microplates by 2×10^4/100 μl/well. […] Thereafter, the cells were fixed with 10% glutaraldehyde and the absorbance at 650 nm was measured by conventional dye-uptake method using methylene blue.
# PC12-HS cells [6] = test: Evaluation A: neurocyte (cell)-growth-promoting action, ALAMAR BLUE; type: cell-based, rat
# Procedure: Then, the effects of test samples were judged as follows:
# The relative value of 140 to 199: Equivalent effect to that of NK-4, symbol (∘); The relative value of 200 or higher: Stronger effect than that of NK-4, symbol ([…]). • The results are in Table 6.
# The relative fluorescent intensity of each well was determined by using the fluorescent intensity of each well with cells, which had been cultured by admixing with D-MEM medium containing 10% by volume of FBS without any of the compounds, and the intensity of the resulting culture was regarded as 100%. The results are expressed as cell survival percentages (%) in Table 9. […]
# The test was conducted twice for each test sample in a triplicate manner and the data were averaged.
# Seven compounds as in Table 17, NK-234, NK-26, NK-9815, NK-9694, NK-28 and NK-147 as well as NK-4, were each dissolved in DMSO to give a concentration of 5 mg/ml. […] The test was conducted twice for each test sample in a triplicate manner and the data were averaged.
# [7] = biological target: T1, acetylcholine esterase (AchE) (Rattus norvegicus, UniProt P37136); test: biochemical; type: biochemical
# T1 sequence (P37136 32-614): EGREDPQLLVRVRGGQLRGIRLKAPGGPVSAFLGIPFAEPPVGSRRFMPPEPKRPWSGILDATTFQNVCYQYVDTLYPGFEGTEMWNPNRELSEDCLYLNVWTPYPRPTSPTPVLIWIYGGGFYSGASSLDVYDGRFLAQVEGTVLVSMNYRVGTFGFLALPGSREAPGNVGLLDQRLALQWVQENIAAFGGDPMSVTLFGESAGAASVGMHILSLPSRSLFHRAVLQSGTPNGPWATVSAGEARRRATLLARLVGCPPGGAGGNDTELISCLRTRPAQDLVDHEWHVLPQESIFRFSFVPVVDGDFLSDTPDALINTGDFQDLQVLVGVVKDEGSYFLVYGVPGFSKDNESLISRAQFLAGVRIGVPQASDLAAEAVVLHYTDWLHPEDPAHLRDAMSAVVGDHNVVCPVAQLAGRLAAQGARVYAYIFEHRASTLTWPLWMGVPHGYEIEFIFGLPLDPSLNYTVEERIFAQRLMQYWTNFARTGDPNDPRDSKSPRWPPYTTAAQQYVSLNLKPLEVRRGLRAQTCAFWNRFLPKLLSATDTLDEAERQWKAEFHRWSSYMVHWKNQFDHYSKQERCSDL
# brain ischemia rat [8] = test: Brain ischemia (cerebral infarction model) rat: size/volume of cerebral infarction region (TTC); type: in vivo; settings: for Volume of cerebral infarction region (mm^3): embolus rat, caudal vein
# brain ischemia rat [9] = test: Brain ischemia (cerebral infarction model) rat: behavioral score; type: in vivo; set-up: Behavioral score: scale not given here; settings: for Behavioral score: embolus rat, caudal vein
# Procedure: Male SD rats, seven- to eight-weeks of age and 280 to 330 g body weight, commercialized by Charles River Laboratories Japan Inc., Kanagawa, Japan, were allocated randomly into seven groups, consisting of five to seven rats in each group. Among the seven groups, five groups were subjected to the following surgery as test groups: Rats in the test groups were subcutaneously administered with 0.3 mg/kg body weight of atropine, commercialized by Fuso Pharmaceutical industries, Osaka, Japan. Successively, each rat was anesthetized by administrating 600 mg/kg body weight of urethane, commercialized by Sigma-Aldrich Co., MO, USA, and 60 mg/kg-weight of […], commercialized by Sigma-Aldrich Co., MO, USA, into the peritoneal cavity, and fixed to a fixator under voluntary breathing conditions. The right carotid artery bifurcation was exposed by median incision of the neck without damaging vagus nerve. The common carotid artery and external carotid artery around the right carotid artery bifurcation were exfoliated from surrounding connective tissue and wired respectively using “NESCOSUTURE”, a 6-0 nylon string commercialized by Alfresa Pharma Corporation, Osaka, Japan. Then, the internal carotid artery was tied with the 6-0 nylon string for fixation after insertion of an obturator. Successively, the common carotid artery was incised and a silicon-coated obturator, prepared by a 4-0 nylon string, commercialized by Doccol Corp., CA, USA, was inserted from the common carotid artery into the internal carotid artery at a distance of about 16 mm, and clipped to the common carotid artery (see, for example, Koizumi et al., Cerebral stroke, Vol. 8, No. 1, pp. 1-8 (1986)). By the method, the silicon-coated tip of obturator was inserted through the right carotid artery bifurcation to frontal cerebral artery at a distance of about 2 mm and obstructs the inlet of the medial cerebral artery. After two hours occlusion of the medial cerebral artery while keeping the rat on an isothermal pad controlled at a temperature of 37° C., blood was allowed to reperfuse by withdrawing the obturator. Then, the internal carotid artery was tied near the carotid artery bifurcation for preventing the bleeding from the incised part of the common carotid artery. In the model, the blood was reperfused through the left carotid artery, vertebral artery, basilar artery, frontal and backward communication artery because the right carotid artery was clipped.
# NK-4, NK-19, NK-53, NK-100, and NK-557, used in the test, were respectively dissolved in DMSO (product No. “D8418”, commercialized by Sigma-Aldrich Co., MO, USA) to give a concentration of 5 mg/ml and filtrated using “MILLEX-LG SLLG025SS”, a DMSO-resistant membrane filter commercialized by Millipore, MA, USA. Stock […], and then 4 ml/kg body weight of any of the resulting diluted solutions was administered ([…]) to five test groups (test groups 1 to 5) consisting of five or seven rats, through their caudal veins at both after one hour from the occlusion of middle cerebral artery and immediately after initiating reperfusion. After 24 hours from the reperfusion of blood, behavioral and histological evaluations of rats were carried out according to the following procedures: As a control group 1, five rats in one group out of the remaining two groups were subjected to the same surgery as the rats in the test groups 1 to 5, and administered with 4 ml/kg body weight of PBS free of any of the compounds through their caudal veins at both after one hour of the medial cerebral artery occlusion and immediately after the start of reperfusion. As the control group 2, six rats in the remaining one group were subjected to a sham surgery, in which common, external, and internal carotid arteries were clipped and then reperfused their blood without inserting the obturator to each medial cerebral artery. […]
# [10] = compound concentration 80 ng/ml
# [11] = compound concentration 400 ng/ml
# [12] = compound concentration 2000 ng/ml
# [13] = compound concentration 10000 ng/ml
# [14] = compound concentration 25 ng/ml
# [15] = concentration of compound 3.13 μg/ml
# [16] = concentration of compound 6.25 μg/ml
# [17] = concentration of compound 12.5 μg/ml
# [18] = 100 μl/well of 100 ng/ml test solution, 3 days, control = 100
# [19] = Experiment 13, cerebral-infarction-model rat, administered through caudal vein
smiles,measurement,setting,value
COc1cc2c(cc1OC)C(=O)C(CC1CCN(Cc3ccccc3)CC1)C2 (stereo not shown) [Donepezil HCl],Passive avoidance reaction,APP Tg mouse [1],200 ± 61 s
same,Water maze test 1st day,APP Tg mouse [2]; 1st day,120 ± 0
same,Water maze test 2nd day,APP Tg mouse [2]; 2nd day,77 ± 19
same,Water maze test 3rd day,APP Tg mouse [2]; 3rd day,53 ± 13
same,Water maze test 4th day,APP Tg mouse [2]; 4th day,62 ± 16
CCCCCCN1C=CC(=CC=C(C=Cc2cc[n+](CCCCCC)c3ccccc23)c2cc[n+](CCCCCC)c3ccccc23)c2ccccc21.[I-].[I-] [NK-9694],IC50 (μg/ml) of hydroxyl radical-scavenging activity,[3],3.4 µg/mL
same,Action on neurite outgrowth (%),PC12-HS cells [4]; [10],45 ± 8%
same,Action on neurite outgrowth (%),PC12-HS cells [4]; [11],55 ± 14%
same,Action on neurite outgrowth (%),PC12-HS cells [4]; [12],38 ± 12%
same,Action on neurite outgrowth (%),PC12-HS cells [4]; [13],10< %
same,suppression of cytotoxicity by 6-hydroxy dopa (in words),"PC12-HS cells [5]; 6-hydroxy dopa, 24 hours",significantly suppressed
same,Survival-cell percentage (%),"PC12-HS cells [5]; 6-hydroxy dopa, 24 hours, compound 0.83 ng/ml",62 ± 1%
same,Survival-cell percentage (%),"PC12-HS cells [5]; 6-hydroxy dopa, 24 hours, compound 3.3 ng/ml",68 ± 2 %
same,Survival-cell percentage (%),"PC12-HS cells [5]; 6-hydroxy dopa, 24 hours, compound 13 ng/ml",67 ± 0 %
same,Survival-cell percentage (%),"PC12-HS cells [5]; 6-hydroxy dopa, 24 hours, compound 50 ng/ml",62 ± 3%
same,Survival-cell percentage (%),"PC12-HS cells [5]; 6-hydroxy dopa, 24 hours, compound 200 ng/ml",47 ± 1%
same,Survival-cell percentage (%),"PC12-HS cells [5]; 6-hydroxy dopa, 24 hours, compound 800 ng/ml",42 ± 1%
same,Action of enhancing cell growth (%),PC12-HS cells [6]; [14],269 ± 17%
same,Action of enhancing cell growth (%),PC12-HS cells [6]; compound concentration 50 ng/ml,123 ± 88%
same,Action of enhancing cell growth (%),PC12-HS cells [6]; compound concentration 100 ng/ml,402 ± 111%
same,Action of enhancing cell growth (%),PC12-HS cells [6]; compound concentration 200 ng/ml,320 ± 36%
CCCCCN1C=CC(=CC=C(C=Cc2cc[n+](CCCCC)c3ccccc23)c2cc[n+](CCCCC)c3ccccc23)c2ccccc21.[I-].[I-] [NK-9815],Residual ratio of AchE activity (%),[7]; concentration of compound 0.78 μg/ml,82 ± 2%
same,Residual ratio of AchE activity (%),[7]; concentration of compound 1.56 μg/ml,98 ± 24%
same,Residual ratio of AchE activity (%),[7]; [15],93 ± 36%
same,Residual ratio of AchE activity (%),[7]; [16],94 ± 16%
same,Residual ratio of AchE activity (%),[7]; [17],56 ± 7 %
same,Residual ratio of AchE activity (%),[7]; concentration of compound 25 μg/ml,41 ± 14 %
same,Residual ratio of AchE activity (%),[7]; concentration of compound 50 μg/ml,24 ± 4 %
same,IC50,"[7]; concentration that suppresses AchE activity by 50%, calculated from residual ratios",17.3 µg/mL
same,Action on neurite outgrowth (%),PC12-HS cells [4]; [10],68 ± 12%
same,Action on neurite outgrowth (%),PC12-HS cells [4]; [11],62 ± 12%
same,Action on neurite outgrowth (%),PC12-HS cells [4]; [12],56 ± 2%
same,Action on neurite outgrowth (%),PC12-HS cells [4]; [13],11 ± 2%
same,Action of enhancing cell growth (%),PC12-HS cells [6]; [14],304 ± 26%
CCCCN1C(C)=CS\C1=C/C=C(\C=C\c1scc(C)[n+]1CCCC)c1scc(C)[n+]1CCCC.[I-].[I-] [NK-24],Percentage (%) of cells with neurite outgrowth,PC12-HS cells [4],33%
same,Action of enhancing cell growth (%),PC12-HS cells [6]; [18],581%
CCCN1C(C)=CS\C1=C/C=C(\C=C\c1scc(C)[n+]1CCC)c1scc(C)[n+]1CCC.[I-].[I-] [NK-237],Percentage (%) of cells with neurite outgrowth,PC12-HS cells [4],16%
same,Action of enhancing cell growth (%),PC12-HS cells [6]; [18],212%
"CC1=NN(c2ccccc2)C(=O)C1 [Edaravone, 3-methyl-1-phenyl-2-pyrazoline-5-one, reference compound]",IC50 (μg/ml) of hydroxyl radical-scavenging activity,[3],148.0 µg/mL
same,Residual ratio of hydroxyl radical (%),[3]; concentration of compound 2.5 μg/ml,100%
same,Residual ratio of hydroxyl radical (%),[3]; [15],100%
same,Residual ratio of hydroxyl radical (%),[3]; [16],100%
same,Residual ratio of hydroxyl radical (%),[3]; [17],100%
same,increment of the volume of cerebral infarction region (in words),brain ischemia rat [8]; [19],not significantly suppressed
same,Volume of cerebral infarction region (mm^3),brain ischemia rat [8]; dose 0.3 mg per kg body weight,179 ± 27 mm^3
same,Volume of cerebral infarction region (mm^3),brain ischemia rat [8]; dose 1 mg per kg body weight,152 ± 28 mm^3
same,Volume of cerebral infarction region (mm^3),brain ischemia rat [8]; dose 3 mg per kg body weight,183 ± 16 mm^3
same,behavioral score (in words),brain ischemia rat [9]; [19],significantly improved
same,Behavioral score,brain ischemia rat [9]; dose 0.3 mg per kg body weight,4.7 ± 0.4
same,Behavioral score,brain ischemia rat [9]; dose 1 mg per kg body weight,3.7 ± 0.5
same,Behavioral score,brain ischemia rat [9]; dose 3 mg per kg body weight,4.8 ± 0.2
same,suppression of cytotoxicity by 6-hydroxy dopa (in words),PC12-HS cells [5],can not suppress the cytotoxicity
